Measured values published in patent publication US10265310B2, “6-membered cyclic amines or lactames substituted with urea and phenyl” (GRÜNENTHAL GMBH, priority 2016, dated 2019).

What was measured:
FPR1 = FPR1 (Homo sapiens (Human), UniProt P21462); assay: Agonistic activity (calcium FLIPR) in hFPR1-Gα15-CHO cells; assay type: cell-based; details: FLIPR Calcium 5 dye fluorescence, agonistic response
Protocol: (§1) Cells (hFPR1-Gα15-CHO or hFPR2-Aq-CHO) are suspended in 10 mL of respective complete medium (F12(1×) HAM media; 10% HI-FBS; 0.1 mg/ml Hygromycin B and 0.2 mg/ml Zeocin [for hFPR1 only]; 0.4 mg/mL Geneticin and 0.25 mg/ml Zeocin [for hFPR2-Aq only]) and viability is checked using Trypan Blue exclusion. After washing, the cells are plated at 10,000 cells per well in 40 μL complete medium in a 384-well sterile clear bottom black plate and incubated in a 5% CO2 incubator at 37° C. for 18 hours. Plating media is removed from each well by decanting and gentle tapping before 30 μL of 0.5× Calcium 5 dye solution (0.5×FLIPR Calcium 5 dye (Molecular devices, R8186)); HBSS; 20 mM HEPES; 2.5 mM Probenecid; 0.025% Pluronic F-127; pH adjusted to 7.4) is added to each well and the plate is then incubated at 37° C. for 30 minutes. For the assay the plate is equilibrated at room temperature for 10 minutes before placing it in the FLIPR. Compounds are dissolved in DMSO and serially diluted over an 11 point half log (3.16 fold) dilution (2 mM to 20 nM). Compounds are then diluted 1:50 in assay buffer (HBSS; 20 mM HEPES; 2.5 mM Probenecid; 0.05% gelatin; 0.1% BSA; pH adjusted to 7.4) just before performing the assay. Compounds are finally added to the respective wells of the cell plate (final assay concentration 10 μM to 100 pM) using the FLIPR (e.g. FLIPR-Tetra, Molecular Devices) and fluorescence readings are captured for 5 minutes. The increase in fluorescence from the basal reading in the presence of the compounds is compared with that of the control wells (wells having no compound) to calculate the activity of the compounds. The EC50 values of the compounds can be determined using e.g. Graph pad Prism software.
(§2) Assay Method for Measuring Agonistic Activity of Compounds in hFPR1-Gα15-CHO and hFPR2-Aq-CHO Cell
(§3) Cryo-vial containing 6×10^6 cells (hFPR1-Gα15-CHO or hFPR2-Aq-CHO) was thawed in a 37° C. water bath. Cells were suspended in 10 ml of respective complete growth media (F12(1×) HAM media (Gibco; Cat#11765); 10% HI-FBS (Gibco; Cat#10082); 0.1 mg/ml Hygromycin B (Invitrogen; Cat#10687-010) [for hFPR1 only]; 0.2 mg/ml Zeocin (Invitrogen; Cat#R25001) [for hFPR1 only]; 0.4 mg/ml Geneticin (Gibco; Cat#10131) [for hFPR2-Aq only]; 0.25 mg/ml Zeocin (Invitrogen; Cat#R25001) [for hFPR2-Aq only]) in a 15 ml centrifuge tube. The cell viability was checked with the help of Trypan Blue dye. Upon washing the cells, those were plated in a 384-well sterile clear bottom black plate (Greiner Bioone Cat#781091) so that, each well contained 10,000 cells in 40 μl complete growth media. The plate was incubated in a 5% CO2 incubator at 37° C. for 18 hours.
(§4) Before assay on the next day, the cell plating media was removed from each well of the plate by decanting and gentle tapping. 30 μl, 0.11 of 0.5× Calcium 5 dye solution (0.5×FLIPR Calcium 5 dye (Molecular devices Cat# R8186); HBSS (Invitrogen; Cat#14025); 20 mM HEPES (Sigma; Cat#H0887); 2.5 mM Probenecid (Sigma; Cat#P8761); 0.025% Pluronic F-127 (Sigma; Cat#P2443); pH adjusted to 7.4) was added to each well. The plate was then incubated at 37° C. for 30 minutes. Following which the plate was equilibrated at room temperature for 10 minutes before placing it in a 384 well FLIPR for assay. Compounds were dissolved in DMSO and serially diluted following 11 point half log (3.16 fold) dilution with a starting concentration of 2 mM (Final assay concentration 10 μM). Aliquots of above mentioned each dilution was mixed with assay buffer (HBSS (Invitrogen; Cat#14025); 20 mM HEPES (Sigma; Cat#H0887); 2.5 mM Probenecid (Sigma; Cat#P8761); 0.05% gelatin (Sigma; Cat#G1890); 0.1% BSA (Sigma; Cat#A3059); pH adjusted to 7.4) just before performing the assay. Compounds were added to the respective wells of the assay ready cell plate with the help of the FLIPR (FLIPR Tetra) and fluorescence readings were captured for 5 minutes to measure any agonistic response of the compounds. […]

FPR2 = FPR2 (Homo sapiens (Human), UniProt P25090); assay: Agonistic activity (calcium FLIPR) in hFPR2-Aq-CHO cells; assay type: cell-based; details: FLIPR Calcium 5 dye fluorescence, agonistic response
Chain of FPR2 (P25090 whole entry): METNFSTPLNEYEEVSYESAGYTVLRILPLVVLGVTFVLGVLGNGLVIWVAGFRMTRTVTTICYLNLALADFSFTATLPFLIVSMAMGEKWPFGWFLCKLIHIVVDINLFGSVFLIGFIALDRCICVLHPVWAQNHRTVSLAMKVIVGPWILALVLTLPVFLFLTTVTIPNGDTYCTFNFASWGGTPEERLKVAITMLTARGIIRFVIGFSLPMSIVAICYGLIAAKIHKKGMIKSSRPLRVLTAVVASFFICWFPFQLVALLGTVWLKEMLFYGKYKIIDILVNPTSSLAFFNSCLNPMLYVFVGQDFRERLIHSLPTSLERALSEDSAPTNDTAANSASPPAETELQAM
Protocol: as §1, §2, §3, §4

Chain of FPR1 (P21462 whole entry): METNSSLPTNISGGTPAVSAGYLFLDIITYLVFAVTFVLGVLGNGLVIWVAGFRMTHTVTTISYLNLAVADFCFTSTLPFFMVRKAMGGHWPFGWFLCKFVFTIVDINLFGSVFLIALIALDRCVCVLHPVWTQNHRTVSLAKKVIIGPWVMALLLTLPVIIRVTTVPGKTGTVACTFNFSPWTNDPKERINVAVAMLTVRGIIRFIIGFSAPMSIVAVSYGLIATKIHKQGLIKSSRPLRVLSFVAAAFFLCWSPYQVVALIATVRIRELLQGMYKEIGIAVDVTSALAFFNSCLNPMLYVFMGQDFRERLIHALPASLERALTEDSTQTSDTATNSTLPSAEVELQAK

Structure (SMILES) | EC50 (FPR1) | EC50 (FPR2)
COc1ccc([C@@H]2CC(=O)NC[C@H]2NC(=O)Nc2ccc(Cl)cc2)cc1 (racemic) [Example 1, rac-trans-1-(4-chlorophenyl)-3-(4-(4-methoxyphenyl)-6-oxopiperidin-3-yl)urea] | 1 to 1000 nM | < 1 nM
COc1ccc([C@@H]2CCN(C(C)=O)C[C@H]2NC(=O)Nc2ccc(Cl)cc2)cc1 (racemic) [Example 2, rac-trans-1-(1-acetyl-4-(4-methoxyphenyl)piperidin-3-yl)-3-(4-chlorophenyl)urea] | < 1 nM | < 1 nM
COc1ccc([C@@H]2CC(=O)NC[C@H]2NC(=O)Nc2ccc(Br)cc2)cc1 (racemic) [Example 3, rac-trans-1-(4-bromophenyl)-3-(4-(4-methoxyphenyl)-6-oxopiperidin-3-yl)urea] | 1 to 1000 nM | < 1 nM
COc1ccc([C@@H]2CCNC[C@H]2NC(=O)Nc2ccc(Cl)cc2)cc1 (racemic) [Example 4, rac-trans-1-(4-chlorophenyl)-3-(4-(4-methoxyphenyl)piperidin-3-yl)urea] | 1 to 1000 nM | < 1 nM
COc1cc(F)c([C@@H]2CCN(C(C)=O)C[C@H]2NC(=O)Nc2ccc(Cl)cc2)c(F)c1 (racemic) [Example 5, rac-trans-1-(1-acetyl-4-(2,6-difluoro-4-methoxyphenyl)piperidin-3-yl)-3-(4-chlorophenyl)urea] | 1 to 1000 nM | < 1 nM
COc1ccc([C@@H]2CCNC[C@H]2NC(=O)Nc2ccc(Br)cc2)cc1 (racemic) [Example 6, rac-trans-1-(4-bromophenyl)-3-(4-(4-methoxyphenyl)piperidin-3-yl)urea] | 1 to 1000 nM | < 1 nM
COc1cc(F)c([C@@H]2CCNC[C@H]2NC(=O)Nc2ccc(Br)cc2)c(F)c1 (racemic) [Example 8, rac-trans-1-(4-bromophenyl)-3-(4-(2,6-difluoro-4-methoxyphenyl)piperidin-3-yl)urea] | 1 to 1000 nM | < 1 nM
COc1cc(F)c([C@@H]2CCNC[C@H]2NC(=O)Nc2ccc(Cl)cc2)c(F)c1 (racemic) [Example 9, rac-trans-1-(4-chlorophenyl)-3-(4-(2,6-difluoro-4-methoxyphenyl)piperidin-3-yl)urea] | 1 to 1000 nM | < 1 nM
COc1ccc([C@@H]2CCN(C(=O)C3CC3)C[C@H]2NC(=O)Nc2ccc(Cl)cc2)cc1 (racemic) [Example 12, rac-trans-1-(4-chlorophenyl)-3-(1-(cyclopropanecarbonyl)-4-(4-methoxyphenyl)piperidin-3-yl)urea] | < 1 nM | < 1 nM
COc1ccc([C@@H]2CCN(C(=O)CO)C[C@H]2NC(=O)Nc2ccc(Cl)cc2)cc1 (racemic) [Example 13, rac-trans-1-(4-chlorophenyl)-3-(1-(2-hydroxyacetyl)-4-(4-methoxyphenyl)piperidin-3-yl)urea] | < 1 nM | < 1 nM
COc1ccc([C@@H]2CCN(C(=O)C(C)(F)F)C[C@H]2NC(=O)Nc2ccc(Cl)cc2)cc1 (racemic) [Example 14, rac-trans-1-(4-chlorophenyl)-3-(1-(2,2-difluoropropanoyl)-4-(4-methoxyphenyl)piperidin-3-yl)urea] | < 1 nM | < 1 nM
COCCC(=O)N1CC[C@@H](c2ccc(OC)cc2)[C@H](NC(=O)Nc2ccc(Cl)cc2)C1 (racemic) [Example 15, rac-trans-1-(4-chlorophenyl)-3-(4-(4-methoxyphenyl)-1-(3-methoxypropanoyl)piperidin-3-yl)urea] | < 1 nM | < 1 nM
COc1ccc([C@@H]2CCN(C(=O)C3CCOCC3)C[C@H]2NC(=O)Nc2ccc(Cl)cc2)cc1 (racemic) [Example 16, rac-trans-1-(4-chlorophenyl)-3-(4-(4-methoxyphenyl)-1-(tetrahydro-2H-pyran-4-carbonyl)piperidin-3-yl)urea] | < 1 nM | < 1 nM
COc1ccc([C@@H]2CCN(C(=O)C(C)C)C[C@H]2NC(=O)Nc2ccc(Cl)cc2)cc1 (racemic) [Example 17, rac-trans-1-(4-chlorophenyl)-3-(1-isobutyryl-4-(4-methoxyphenyl)piperidin-3-yl)urea] | < 1 nM | < 1 nM
COc1ccc([C@@H]2CCN(C(=O)CC(C)C)C[C@H]2NC(=O)Nc2ccc(Cl)cc2)cc1 (racemic) [Example 18, rac-trans-1-(4-chlorophenyl)-3-[4-(4-methoxyphenyl)-1-(3-methyl-butanoyl)-piperidin-3-yl]-urea] | < 1 nM | < 1 nM
COc1ccc([C@@H]2CCN(C(C)=O)C[C@H]2NC(=O)Nc2ccc(Cl)nc2)cc1 (racemic) [Example 19, rac-trans-1-(1-acetyl-4-(4-methoxyphenyl)piperidin-3-yl)-3-(6-chloropyridin-3-yl)urea] | 1 to 1000 nM | 1 to 1000 nM
COc1ccc([C@@H]2CC(=O)N(CC(N)=O)C[C@H]2NC(=O)Nc2ccc(Cl)cc2)cc1 (racemic) [Example 20, rac-trans-2-(5-(3-(4-chlorophenyl)ureido)-4-(4-methoxyphenyl)-2-oxopiperidin-1-yl)acetamide] | 1 to 1000 nM | < 1 nM
COC(=O)CN1C[C@@H](NC(=O)Nc2ccc(Cl)cc2)[C@H](c2ccc(OC)cc2)CC1=O (racemic) [Example 21, rac-trans-methyl 2-(5-(3-(4-chlorophenyl)ureido)-4-(4-methoxyphenyl)-2-oxopiperidin-1-yl)acetate] | < 1 nM | < 1 nM
COc1cc(F)c([C@@H]2CC(=O)NC[C@H]2NC(=O)Nc2ccc(Cl)cc2)c(F)c1 (racemic) [Example 23, rac-trans-1-(4-chlorophenyl)-3-(4-(2,6-difluoro-4-methoxyphenyl)-6-oxopiperidin-3-yl)urea] | 1 to 1000 nM | < 1 nM
COc1ccc([C@@H]2CC(=O)N(CC3CC3)C[C@H]2NC(=O)Nc2ccc(Cl)cc2)cc1 (racemic) [Example 24, rac-trans-1-(4-chlorophenyl)-3-(1-(cyclopropylmethyl)-4-(4-methoxyphenyl)-6-oxopiperidin-3-yl)urea] | 1 to 1000 nM | < 1 nM
COc1ccc([C@@H]2CCN(C(C)=O)C[C@H]2NC(=O)Nc2cncnc2)cc1 (racemic) [Example 25, rac-trans-1-(1-acetyl-4-(4-methoxyphenyl)piperidin-3-yl)-3-(pyrimidin-5-yl)urea] | 1 to 1000 nM | 1 to 1000 nM
COc1ccc([C@@H]2CCN(C(C)=O)C[C@H]2NC(=O)Nc2ccc(C)nc2)cc1 (racemic) [Example 26, rac-trans-1-(1-acetyl-4-(4-methoxyphenyl)piperidin-3-yl)-3-(6-methylpyridin-3-yl)urea] | 1 to 1000 nM | 1 to 1000 nM
CSc1ccc([C@@H]2CC(=O)NC[C@H]2NC(=O)Nc2ccc(Cl)cc2)cc1 (racemic) [Example 72, rac-trans-1-(4-chlorophenyl)-3-(4-(4-(methylthio)phenyl)-6-oxopiperidin-3-yl)urea] | 1 to 1000 nM | 
